A short description of series [1]: cassette tissue distribution study in mice. The following applies: 1.0 mg/kg per compound intraperitoneal cassette dose, n = 3. Format: in vivo, mouse.
Series [2] can be described thus: intrinsic clearance in liver microsomes. The following applies: mouse. A general note: Liver microsomes are a subcellular fraction often used to study metabolism.
A further series addresses T1, human CHT (Homo sapiens, UniProt Q9GZV3, L531A/V532A).
T1 sequence (Q9GZV3 1-580 L531A/V532A): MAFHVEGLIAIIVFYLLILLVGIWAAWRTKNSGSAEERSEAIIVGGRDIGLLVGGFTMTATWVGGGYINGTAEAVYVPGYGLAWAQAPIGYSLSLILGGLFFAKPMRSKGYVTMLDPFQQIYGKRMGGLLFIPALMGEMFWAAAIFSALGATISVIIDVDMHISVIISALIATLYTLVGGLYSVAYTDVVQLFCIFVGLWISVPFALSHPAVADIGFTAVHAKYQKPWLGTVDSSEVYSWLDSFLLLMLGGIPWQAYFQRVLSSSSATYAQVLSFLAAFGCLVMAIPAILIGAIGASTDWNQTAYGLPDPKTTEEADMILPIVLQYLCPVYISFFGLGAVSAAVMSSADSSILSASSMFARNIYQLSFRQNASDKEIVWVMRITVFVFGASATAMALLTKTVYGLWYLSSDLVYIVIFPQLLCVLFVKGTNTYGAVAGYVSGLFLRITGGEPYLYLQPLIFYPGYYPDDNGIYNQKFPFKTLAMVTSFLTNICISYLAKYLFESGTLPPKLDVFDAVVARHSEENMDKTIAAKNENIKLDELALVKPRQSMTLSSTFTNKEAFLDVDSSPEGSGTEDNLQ
Format: cell-based.

The test system of series [3] is dopamine transporter (DAT). The following applies: at the highest concentration tested; cited from earlier work.

As usually defined, the CLint scaled is the rate of metabolic loss divided by the concentration. A high value points to rapid turnover.

As to `COc1ccc(C(=O)NCc2cc(C(C)C)no2)cc1OC1CCN(C(C)C)CC1` [Compound 10e], the Brain concentration entry in series [1] was “BLQ”. For the same molecule, in series [2], the CLint scaled is 781 mL/min/kg.

For the molecule `COc1ccc(C(=O)NCc2cc(C(C)C)no2)cc1OC1CCCCC1` [Compound 10o], at human CHT, the “CHT inhibitory activity” value was “inactive”. On to `COc1ccc(C(=O)NCc2ccc(C)s2)cc1OC1CCN(C(C)C)CC1` [Compound 10c], for which the “activity at the high choline concentration” value at human CHT (high (10 μM) choline) is listed as “modest inhibitory activity”. Also, the “activity at the low choline concentration” value at human CHT (low (100 nM) choline) was “inactive”. Turning to `COc1ccc(C(=O)NCc2cc(C(C)C)no2)cc1OC1CCCC1` [Compound 10p], the “CHT inhibitory activity” value on human CHT is “inactive”. In the case of `COc1ccc(C(=O)NCc2cc(C(C)C)no2)cc1OCCN1CCOCC1` [Compound 10r], on human CHT (morpholine 10r versus piperidine 10q), the “fold less active than the piperidine analog” value is recorded as ~ 10 fold.

In the case of `CCn1nc(C)c(CNC(=O)c2ccc(OC)c(OC3CCN(C(C)C)CC3)c2)c1C` [Compound 10f], in series [1], the Brain concentration entry is given as “BLQ”. Besides, the CLint scaled in series [2] was 29.9 mL/min/kg.

On to `COc1ccc(C(=O)NCc2cc(C(C)C)no2)cc1O` [Compound 10v], for which, on human CHT, the “CHT inhibitory activity” value was “inactive”. Molecule `COc1ccc(C(=O)NC(C)Cc2ccccn2)cc1OC1CCN(C(C)C)CC1` (stereo not drawn) [Compound 10k] returned an intrinsic clearance (CLint scaled) in series [2] of 106 mL/min/kg.

Regarding `COc1ccc(C(=O)NCc2cc(C(C)C)no2)cc1OC1CCN(C)CC1` [Compound 10m, N-((3-isopropylisoxazol-5-yl)methyl)-4-methoxy-3-((1-methylpiperidin-4-yl)oxy)benzamide], on human CHT, the “CHT inhibitory activity” value is on record as “equipotent with the isopropyl analog”. Also, the CLint scaled in series [2] is 43.7 mL/min/kg. For the same molecule, in series [3], the DAT inhibitory activity entry is reported as “did not show any inhibitory activity”.

Regarding `COc1ccc(C(=O)NCc2cc(C(C)C)no2)cc1OC1CCCN(C)C1` (stereo not drawn) [Compound 10n], the “CHT inhibitory activity” value at human CHT is “tolerated, but less active”.

On to `COc1ccc(C(=O)NCc2cc(C(C)C)no2)cc1OC1CCNCC1` [Compound 10l], for which, on human CHT, the “CHT inhibitory activity” value is “much less active”.

`COc1ccc(C(=O)NCc2cc(C(C)C)no2)cc1OCCN1CCCCC1` [Compound 10q]: the CLint scaled in series [2] is 167 mL/min/kg. Molecule `COc1ccc(C(=O)NCc2csc(C)n2)cc1OC1CCN(C(C)C)CC1` [Compound 10b] had a CLint scaled in series [2] of 979 mL/min/kg.

The values are drawn from publication PMC4385452 (Bioorganic & medicinal chemistry letters, 2015).
